Data on 1 compound can be found in patent US20250382346A1, “NEURONAL PROMOTERS AND USES THEREOF” (priority 2023, published 2025).

One data set addresses T1, rM3Ds (Rattus norvegicus, UniProt P08483, A177S/A238G/A489L/DEL261-437/DEL441-478/E258S/I253V/I483M/INS256[…]/K178L/K182A/K255R/K484R/K486H/L173F/L482A/M480V/R171S/R176Q/R179M/S481M/T174R/T181R/T257A/Y148C).
T1 sequence (P08483 with tags, fused parts or gaps Y148C/R171S/L173F/T174R/R176Q/A177S/K178L/R179M/T181R/K182A/A238G/I253V/K255R/INS256[…]/T257A/E258S/DEL261-437/DEL441-478/M480V/S481M/L482A/I483M/K484R/K486H/A489L): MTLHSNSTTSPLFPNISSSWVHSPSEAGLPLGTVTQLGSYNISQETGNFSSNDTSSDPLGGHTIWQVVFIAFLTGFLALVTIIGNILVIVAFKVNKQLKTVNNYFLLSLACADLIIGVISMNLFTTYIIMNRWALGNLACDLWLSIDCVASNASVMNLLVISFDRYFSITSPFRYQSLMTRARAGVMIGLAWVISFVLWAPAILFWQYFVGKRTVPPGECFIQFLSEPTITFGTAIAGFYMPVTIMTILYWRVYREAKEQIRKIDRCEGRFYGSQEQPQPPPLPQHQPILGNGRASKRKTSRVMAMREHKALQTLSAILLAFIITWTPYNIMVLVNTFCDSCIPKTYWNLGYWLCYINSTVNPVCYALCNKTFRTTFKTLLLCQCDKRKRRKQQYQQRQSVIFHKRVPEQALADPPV
The data set is described as follows: Striatal slice whole-cell recordings of retrogradely labeled D1-MSNs, rM3Ds. The arrangement: 2A-EYFP (C); expressed in transfected cells; host or cells: neurons (striatal D1-MSNs) of mice or cynomolgus macaques, transduced in vivo by nigral AAV8R12-G88P7-rM3Ds-2A-EYFP. It is filed as cell-based, mice. Conditions: AAV8R12-G88P7-rM3Ds-2A-EYFP; CNO 10 μM; basal firing rate and resting membrane potential unaffected. The text has this:
Mice from different groups were anesthetized with […] isoflurane, and then decapitated. The brain was quickly extracted and placed in ice-cold N-methyl-D-glucamine (NMDG) cutting solution containing (in mM): 92 NMDG, 2.5 KCl, 25 NaHCO3, 1.25 NaH2PO4, 4.5 D-Glucose, 20 HEPES, 5 L-ascorbic acid, 3 Na-pyruvate, 2 Thiourea, 10 MgSO4, 0.5 CaCl2). The pH was adjusted to 7.2±0.1 using HCl and the osmolarity was adjusted to 305±5 mosmol/L using NMDG. The solution was bubbled with 95% O2/5% CO2 prior to use. Coronal striatum slices were cut in 250-[…]m thickness with a vibratome slicer (Leica, VT1200 S), and then incubated in artificial cerebrospinal fluid (aCSF) saturated with 95% O2/5% CO2 for at least 45 min at 37° C. before recording. The aCSF contains (in mM) 125 NaCl, 1.25 KCl, 25 NaHCO3, 1.25 KH2PO4, 25 D-Glucose, 2 CaCl2) and 1 MgCl2, supplemented with 2 mM Na-pyruvate, 3 mM Myo-inositol and 0.4 mM L-ascorbic acid.
The acute striatum slice was transferred to the recording chamber with a constant perfusion of oxygenized aCSF at the rate of 3 ml/min. Neurons were visualized using an upright microscope (Olympus, BX-51) with a 40× water immersion objective at room temperature (˜25° C.). […] Neurons were quickly visualized under fluorescence microscope and then patch clamp were achieved under infrared light illumination and CCD camera. […]

A short description of data set [1]: Locomotion test in naïve macaques (no viral injection). It is filed as in vivo. The conditions noted are these: naive macaques, n=3, not significant.

On to `C[N+]1([O-])CCN(C2=Nc3cc(Cl)ccc3Nc3ccccc32)CC1` [CNO, Clozapine-N-oxide], for which the “excitability of labeled striatal MSNs upon CNO” value at rM3Ds is listed as “enhancement in the excitability”. For the same compound, the “percentage of contraversive and ipsiversive rotation (FIG. 11C), mean±SEM” value in data set [1] (saline 0.767±0.4296) is 0.8384±0.4152. Also, the “speed of contraversive rotations (FIG. 11G), mean±SEM” value in data set [1] (saline 39.07±5.889) is 39.63±7.092. For the same compound, the “speed of ipsiversive rotations (FIG. 11H), mean±SEM” value in data set [1] (saline 41.49±3.96) worked out at 42.79±4.705. For the same compound, the “total distance (FIG. 11F), mean±SEM” value in data set [1] (saline 53.12±15.3) is 59.48±18.65. For the same compound, in data set [1] (saline 55.73±2.64), the “time spending in the higher portion of the observing cages (FIG. 11D), mean±SEM” value is 60.43±4.542. Further, the “immobile time (FIG. 11E), mean±SEM” value in data set [1] (saline 149.9±21.61) is 149.8±22.65.
